Measured values: patent US20240376069A1, “COMPOUNDS AND METHODS FOR LABELING LIPIDATED NUCLEOTIDES” (The Research Foundation for The State University of New York, priority 2023, published 2024)

Legend:
HEK293T cells = test: In-cell fluorescent labelling of SelU-mediated tRNA geranylation, confocal imaging; type: cell-based
Description: The HEK293T cells were washed twice with PBS, and trypsin was added for 1 min. Then 2.0 mL DMEM medium was added to the mixed well, followed by centrifuged at 1,000 r.p.m for 5 min, and the supernatant was discarded. Fresh medium was added to resuspend the cell pellet and cells were seeded in a confocal dish at the density of 0.5×1 05, the cells were gently mixed using pipette, and then placed in CO2 incubator. 150 mM sterile NaCl solution was prepared as a diluent for DNA and Vigofect (Vigorous Biotechnology Beijing Co., Ltd.). The culture medium in the confocal dish was then replaced with fresh complete culture medium before transfection, and the culture was incubated at 37° C. under 5% CO2 atmosphere. […] Configure the transfection working solution. […] Next, 2.5 μl VigoFect was added to the diluent (total 100 μl), and the solution was mixed gently and placed at room temperature for 5 min. Next, the diluted VigoFect was added into the diluted DNA solution gently, and the resulting transfection working solution was incubated at room temperature for 15 min. Subsequently, the working solution was added to the cell culture, mixed gently and incubated for 24 h. […] Cells were washed with PBS 3 times and then fixed with 4% paraformaldehyde for 15 min, and subsequently permeabilized with 0.5% Triton X-100 for 15 min. […]

SelU = SelU (Escherichia coli, UniProt P33667); type: biochemical, E. coli; conditions: for modified RNA residues after click reaction and RNase cleavage (recognition by SelU): HPLC and MS-spec data
SelU, sequence (P33667 whole entry): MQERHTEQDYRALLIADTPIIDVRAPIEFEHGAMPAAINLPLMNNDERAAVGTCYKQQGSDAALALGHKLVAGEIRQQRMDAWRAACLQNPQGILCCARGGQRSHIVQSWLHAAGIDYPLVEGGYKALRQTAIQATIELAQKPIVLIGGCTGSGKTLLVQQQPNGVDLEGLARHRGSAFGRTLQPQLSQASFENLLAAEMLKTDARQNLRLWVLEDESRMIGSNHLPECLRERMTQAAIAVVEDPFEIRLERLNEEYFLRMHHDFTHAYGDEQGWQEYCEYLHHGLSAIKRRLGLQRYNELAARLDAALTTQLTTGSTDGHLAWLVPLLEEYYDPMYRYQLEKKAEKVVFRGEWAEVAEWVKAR

prenylated tRNA = test: Direct fluorescent labelling of prenylated tRNA by Ene-ligation, in-gel fluorescence; conditions: 10 μM probe; total RNAs isolated from E. coli
Description: tRNA (1.0 mg) isolated from E. coli using Zymo purification kit strictly following the instruction protocol was dissolved in PBS buffer (0.1 M, pH=7.4) and the PTAD-DBCO-Cy5 probe (1.0 mM) generated by in-situ oxidation with N-bromosuccinimide (NBS, 1 M in DMF) was added in one portion at 4° C. The mixture was incubated at 4° C. for 15 min in a sterile tube. And excess fluorescent probe was removed by 3K filter (Millipore) and the resulting nucleic acid was analyzed by in-gel fluorescence (Scheme S8).

HeLa cells [1] = test: Cytotoxic assays of i^6A (4) towards HeLa cells; type: cell-based
Description: In order to better detect the involvement of i^6A (4) in the transcription process of cellular RNA, we also tested the effect of i^6A (4) on cytotoxicity and optimized the concentration of i^6A (4) to treat cells.

HeLa cells [2] = test: Incorporation of i^6A into total RNA of eukaryotic cells, detected with PTAD-DBCO-FITC (8); type: cell-based
Description: Next, we will further test whether i^6A (4) can participate in the RNA transcription process in eukaryotic cells. First culture the HeLa cells in a six-well plate to 70%-80%. […] After 12 hours of culture, collect all cells and extract total RNA.
To the 1.5 mL Eppendorf tube containing PTAD-DBCO-FITC precursor (7, 10 μL, 10 mM solution in DMF) was added N-bromo succinimide (1.0 μL, 100 mM in DMF). The mixture was vortexed gently and formation of the light-red color was observed. The reagent was kept on ice and used for the i^6A-incorporated RNA labelling immediately. Labeling protocol is the same stated above.
HeLa cells was obtained from ATCC. HeLa cells were cultured in DMED medium with 10% fetal calf serum. Cells were maintained in a humidified incubator at 5% CO2 and 37° C. To label RNA in vivo, HeLa cells were cultured in 6-well plates to 70%-80%. […] Then it will be detected by agarose gel electrophoresis. […]
The i^6A-incorporated total RNA ([…], 20 ng/mL in DEPC water) was incubated with PTAD-DBCO-FITC ([…] of a 0.1 mM solution), shaken for 30 minutes at 0° C. The RNA was then analyzed through gel electrophoresis on a 1% agarose gel. […] Gels were analyzed by in-gel fluorescence measurements on a FluorChem® FC3 imager (Alpha Innotech). Fluorescence was measured with a blue light excitation wavelength (475 nm) and a green filter emission (537 nm).

[3] = Dynamic investigation of the Ene-ligation of i^6A with PTAD by proton NMR; type: physicochemical; conditions: i^6A 30 mM, PTAD 0.15 mmol, CD3CN/D2O (v/v, 1/1), room temperature, within 5 minutes
Description: Nucleoside i^6A (4, 10 mg, 0.03 mmol) were dissolved in CD3CN/D2O (1.0 mL, v/v=1:1, final concentration=30 mM). PTAD (5, 26 mg, 0.15 mmol) was then added to the solution (final concentration=150 mM), and the reaction mixture was allowed to stand at room temperature. The ^1H NMR spectra were recorded by proton NMR (400 MHz).
The nucleoside i^6A (10 mg, 0.03 mmol) was dissolved in a mixture of CD3CN and D2O (0.5 mL, volume-to-volume ratio of 4:1, resulting in a final concentration of 60 mM). Subsequently, 4-phenyl-3H-1,2,4-triazole-3,5(4H)-dione (PTAD, 26 mg, 0.15 mmol, equivalent to 5 times the amount of i^6A) was added to the solution (resulting in a final concentration of 300 mM). The reaction mixture was then allowed to stand at room temperature. The ^1H NMR spectra were obtained using a 400 MHz ^1H NMR instrument with CD3CN/D2O as the solvent.

[4] = Iodine-mediated cyclisation of nucleoside i^6A; type: physicochemical; conditions: optimized concentration of iodine reagent
Description: Model reactions of i^6A nucleoside (4). The model reactions were carried out in DMSO-d6 in order to facilitate in situ NMR characterization without further purification. i^6A (4, 0.15 mmol) was dissolved in DMSO-d6 (0.5 mL), and iodine (0.45 mmol) was added. The mixture was stirred at 37° C. for 5 minutes and was taken out for ^1H NMR.
The reactions were conducted in DMSO-d^6 to enable in situ NMR characterization without the need for additional purification. i^6A (4, 0.15 mmol) was dissolved in DMSO-d^6 (0.5 mL), and iodine (0.45 mmol in DMSO-d^6) was subsequently added to the solution. The mixture was then stirred at 37° C. for 5 minutes. After this incubation period, the reaction mixture was subjected to ^1H NMR, ^13C NMR, HPLC, UV and LC-MS analysis.

T7 RNA polymerase = T7 RNA polymerase (Escherichia phage T7, UniProt P00573)
T7 RNA polymerase, sequence (P00573 whole entry): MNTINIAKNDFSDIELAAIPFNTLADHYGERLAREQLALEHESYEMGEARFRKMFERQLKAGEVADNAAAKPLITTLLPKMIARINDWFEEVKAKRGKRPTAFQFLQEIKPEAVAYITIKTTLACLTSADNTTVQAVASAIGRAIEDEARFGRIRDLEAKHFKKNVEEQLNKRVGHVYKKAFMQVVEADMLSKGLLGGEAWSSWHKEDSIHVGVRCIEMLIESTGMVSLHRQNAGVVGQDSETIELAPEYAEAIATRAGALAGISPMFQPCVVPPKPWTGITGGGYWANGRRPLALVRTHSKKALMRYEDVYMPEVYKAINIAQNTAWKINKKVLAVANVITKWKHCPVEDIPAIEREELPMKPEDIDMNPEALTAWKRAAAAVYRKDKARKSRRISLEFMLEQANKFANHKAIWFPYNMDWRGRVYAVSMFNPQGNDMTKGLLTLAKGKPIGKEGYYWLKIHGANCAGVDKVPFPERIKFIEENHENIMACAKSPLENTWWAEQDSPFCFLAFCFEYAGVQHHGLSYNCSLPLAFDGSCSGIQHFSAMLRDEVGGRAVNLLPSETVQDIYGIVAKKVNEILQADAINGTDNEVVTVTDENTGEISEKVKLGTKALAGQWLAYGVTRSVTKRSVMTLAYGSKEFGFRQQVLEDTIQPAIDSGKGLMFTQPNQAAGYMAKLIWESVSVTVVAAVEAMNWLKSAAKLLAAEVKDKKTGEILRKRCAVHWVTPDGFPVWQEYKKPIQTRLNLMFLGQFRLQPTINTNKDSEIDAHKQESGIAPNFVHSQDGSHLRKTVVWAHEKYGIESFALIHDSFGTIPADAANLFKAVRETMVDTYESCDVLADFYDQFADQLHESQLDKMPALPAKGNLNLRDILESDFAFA
Description: Using the T7P-EGFP constructed above as a template and rNTP as substrates, the reaction was carried out at 37° C. for 2 hours which was catalyzed by T7 RNA polymerase. After the reaction, the template DNA T7P-EGFP was degraded with DNase I. Finally, the RNA was precipitated and purified, and the transcription effect of the RNA was detected by agarose gel electrophoresis. The T7P-EGFP template sequence and HeLa genomic RNA were used as the control group.
EGFP-RNA was transcript with T7 transcription kit (Takara) in vitro. The system was kept at 37° C. for 2 hours. 1-4 extended to 6 hours. Then the templets were digested with DNase 1, 37° C. for 30 minutes. […] RNA concentration was determined with a Nanodrop One microvolume UV-Vis. spectrophotometer.

CC(C)=CCC/C(C)=C/COP(=O)(O)OP(=O)(O)O [Ge1, (E)-3,7-dimethylocta-2,6-dien-1-yldiphosphate Tetrabutylammonium Trimer, reference compound]
red fluorescence of geranylated tRNA in cells, direct labelling (HEK293T cells; transfected SelU and 5s (tRNA^Lys), probe PTAD-DBCO-Cy5): clearly showed the red fluorescence

CC(C)=CCCC(C)CCOP(=O)(O)OP(=O)(O)O (centres unmarked) [Ge2, 3,7-dimethyloct-6-en-1-yl pyrophosphate]
modified RNA residues after click reaction and RNase cleavage (recognition by SelU) (SelU): no modified RNA residues

CC(C)=CCCOP(=O)(O)OP(=O)(O)O [Ge3, 4-methylpent-3-en-1-yl Diphosphate Tetrabutyl Ammonium Trimer]
modified RNA residues after click reaction and RNase cleavage (recognition by SelU) (SelU): no modified RNA residues

C/C(=C\COP(=O)(O)OP(=O)(O)O)CC/C=C(\C)CN=[N+]=[N-] [Ge5]
red fluorescence in cells, two-step ACT-Flu approach (HEK293T cells; SelU co-transfected, probe DBCO-Cy5): strong red florescence
fluorescent labelling of tRNA^Gln, Glu, Lys after SelU-mediated transfer of the ligand (SelU): efficient fluorescent signal of tRNA was observed

C/C(=C\COP(=O)(O)OP(=O)(O)O)CC/C=C(\C)COC(=O)CCC(=O)N1Cc2ccccc2C#Cc2ccccc21 [Ge7]
fluorescent labelling of tRNA^Gln, Glu, Lys after SelU-mediated transfer of the ligand (SelU): failed

CN1/C(=C/C=C/C=C/C2=[N+](CCCCCC(=O)NCCC(=O)N3Cc4ccccc4-c4c(nnn4CCOc4ccc(N5C(=O)N=NC5=O)cc4)-c4ccccc43)c3ccccc3C2(C)C)C(C)(C)c2ccccc21.[Cl-] [PTAD-DBCO-Cy5]
fluorescent signal of total RNAs treated with the probe (prenylated tRNA): a red fluorescent signal was observed

CC(C)=CCNc1ncnc2c1ncn2[C@@H]1O[C@H](CO)[C@@H](O)[C@H]1O [i^6A (4), N^6-(3-methylbut-2-enyl)-adenosine]
cytotoxic concentration (HeLa cells [1]; HeLa cells): 800 µM
effect on cell viability (HeLa cells [1]; concentration 800 μM): cell viability will be significantly inhibited
effect on cells (HeLa cells [1]; concentration 2.0 mM): significant inhibitory effect on cells
effect on cell viability (HeLa cells [1]; concentration within 400 μM): little effect on cell viability
fluorescence signal of total RNA after PTAD-DBCO-FITC (8) staining (HeLa cells [2]; cells cultured in the presence of i^6A, none in control group): significant fluorescence signal was detected
fluorescence signal of total RNA after PTAD-DBCO-FITC (8) staining (HeLa cells [2]; i^6A 800 μM): weaker RNA fluorescence signal
conversion yield in reaction with PTAD [3]: approximately 50%
time to full conversion with iodine [4]: less than 5 minutes

CC(C)=CCNc1ncnc2c1ncn2C1OC(COP(=O)(O)OP(=O)(O)OP(=O)(O)O)C(O)C1O (centres unmarked) [i^6ATP]
recognition efficiency of T7 RNA polymerase (T7 RNA polymerase; compared with K4, preliminary experiments): significantly higher than that of K4
recognition efficiency by T7 RNA polymerase (T7 RNA polymerase; compared with rATP): low comparing with rATP
